In PubChem BioAssay (NCI):
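Cells were grown in 96-well plates and exposed to each compound for 48 hours at five concentrations; endpoints were interpolated linearly between bracketing concentrations, or set to the highest concentration if not reached. TGI is the concentration that stops growth completely.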

Legend:
Assay in all cases: NCI tumour cell line growth inhibition, 48 h
XF 498 CNS = tested on: XF 498 CNS
SNB-78 CNS = tested on: SNB-78 CNS
P388 leukemia = tested on: P388 leukemia
DMS 114 small cell lung = tested on: DMS 114 small cell lung
HOP-18 NSCLC = tested on: HOP-18 NSCLC
SN12K1 renal = tested on: SN12K1 renal
M19-MEL melanoma = tested on: M19-MEL melanoma
RXF-631 renal = tested on: RXF-631 renal

SMILES	TGI (XF 498 CNS) [µM]	TGI (SNB-78 CNS) [µM]	TGI (P388 leukemia) [µM]	TGI (DMS 114 small cell lung) [µM]	TGI (HOP-18 NSCLC) [µM]	TGI (SN12K1 renal) [µM]	TGI (M19-MEL melanoma) [µM]	TGI (RXF-631 renal) [µM]
C=CCc1cccc(/C=N\N=C(/N)NO)c1O	9.65	> 88.1	3.19	12.9	> 100	11.6		
COc1cc2c(c(OC(C)=O)c1OC(C)=O)-c1ccc(SC)c(=O)cc1C(NC(C)=O)CC2 (stereo unspecified)	42.4	> 100		6.11	> 100		> 73.5	
CCN(CC)CCNc1ccc2nnn3c4ccccc4c(=O)c1c23	13.6			24.2			17.2	13.7
Cc1c2c(ccc3ccccc32)c[n+]2ccccc12				19.8				
O=C(O)c1nccnc1C(=O)O	> 100			> 100			> 100	> 100
[O-][n+]1c(-c2ccccc2)c2nc3ccccc3nc2c2ccccc21	> 100	92.4		> 100			> 100	> 100
CC(=O)N/C(=C\c1ccc(/C=C(\NC(C)=O)C2=NC3C(=O)c4ccccc4C(=O)C3N2)cc1)C1=NC2C(=O)c3ccccc3C(=O)C2N1 (stereo unspecified)	> 100	> 100		> 100	> 100		> 100	> 100
